Values joined by “and” are separate entries in the source; they are usually repeats but may differ in a detail not shown here. Identical values can stand only once. “Also recorded” adds a separate entry of the source. Like-named read-outs stand apart in the source and are kept apart here.
Assays:
[1] = test system: 20 GPCRs (200 GPCR-Gα strains); experiment: control dCyFIRscreen profiles against 20 GPCRs (200 GPCR-Gα strains); format: cell-based, human; details: 20 GPCRs incl. all 15 constitutively active receptors
Procedure: dCyFIRscreen protocol. Individual Gα reporter strains were grown in SCD LoFo pH=7.0 at 30° C. to an OD=1.0 in a 2.0 mL 96-well DeepWell block (Greiner; 780271-FD). Cells were normalized to an OD of 0.1 in SCD LoFo pH=7.0 using a Biomek NXp liquid-handling robot. 10× ligand/vehicle stocks were prepared (see Table 2) and 4 μL were distributed to each well of a 384-well plate (Greiner; 781096) in quadruplicate using a Biomek NXp. 36 μL normalized cells were distributed to each well containing the appropriate 10× ligand/vehicle. Plates were sealed with a breathable cover (Diversified Biotech; BERM-2000) and incubated at 30° C. Fluorescence readings were collected after 18 hours using a plate reader (ClarioStar, BMG LabTech, Offenburg, Germany) (bottom read, 10 flashes/well, excitation filter: 430-10 nm, dichroic filter: LP 458 nm, emission filter: 482-16 nm, gain=1300 (1500 for FIG. 1B.)). Absorbance readings were also collected after 18 hours using the same instrument (22 flashes/well, excitation filter: 600 nm).

[2] = target: T1, LPAR4 (Homo sapiens, UniProt Q99677); experiment: dCyFIRscreen profiling in yeast GPCR-Gα reporter strains; format: cell-based
T1 construct: expressed in transfected cells; host or cells: Saccharomyces cerevisiae BY4741-derived GPCR-Gα reporter strains, X-2 landing pad
T1 sequence (Q99677 whole entry): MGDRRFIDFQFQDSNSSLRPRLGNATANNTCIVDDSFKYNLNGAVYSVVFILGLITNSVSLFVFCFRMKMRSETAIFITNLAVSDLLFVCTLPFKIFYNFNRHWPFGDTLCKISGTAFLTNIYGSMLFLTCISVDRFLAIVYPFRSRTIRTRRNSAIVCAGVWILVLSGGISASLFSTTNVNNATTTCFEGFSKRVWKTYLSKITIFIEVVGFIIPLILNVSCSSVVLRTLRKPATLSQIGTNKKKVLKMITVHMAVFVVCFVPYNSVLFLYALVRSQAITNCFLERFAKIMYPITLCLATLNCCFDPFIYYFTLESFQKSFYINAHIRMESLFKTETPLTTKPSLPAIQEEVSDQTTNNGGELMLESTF
Procedure: (§1) Individual Gα reporter strains were grown in SCD LoFo pH=7.0 at 30° C. to an OD=1.0 in a 2.0 mL 96-well DeepWell block (Greiner; 780271-FD). Cells were normalized to an OD of 0.1 in SCD LoFo pH=7.0 using a Biomek NXp liquid-handling robot. 10× ligand/vehicle stocks were prepared (see Table 2) and 4 μL were distributed to each well of a 384-well plate (Greiner; 781096) in quadruplicate using a Biomek NXp. 36 μL normalized cells were distributed to each well containing the appropriate 10× ligand/vehicle. Plates were sealed with a breathable cover (Diversified Biotech; BERM-2000) and incubated at 30° C. Fluorescence readings were collected after 18 hours using a plate reader (ClarioStar, BMG LabTech, Offenburg, Germany) (bottom read, 10 flashes/well, excitation filter: 430-10 nm, dichroic filter: LP 458 nm, emission filter: 482-16 nm, gain=1300 (1500 for FIG. 1B.)). Absorbance readings were also collected after 18 hours using the same instrument (22 flashes/well, excitation filter: 600 nm).

[3] = target: T2, GPR4 (Homo sapiens, UniProt P46093); experiment: as above; format: cell-based
T2 construct: expressed in transfected cells; host or cells: Saccharomyces cerevisiae BY4741-derived GPCR-Gα reporter strains, X-2 landing pad
T2 sequence (P46093 whole entry): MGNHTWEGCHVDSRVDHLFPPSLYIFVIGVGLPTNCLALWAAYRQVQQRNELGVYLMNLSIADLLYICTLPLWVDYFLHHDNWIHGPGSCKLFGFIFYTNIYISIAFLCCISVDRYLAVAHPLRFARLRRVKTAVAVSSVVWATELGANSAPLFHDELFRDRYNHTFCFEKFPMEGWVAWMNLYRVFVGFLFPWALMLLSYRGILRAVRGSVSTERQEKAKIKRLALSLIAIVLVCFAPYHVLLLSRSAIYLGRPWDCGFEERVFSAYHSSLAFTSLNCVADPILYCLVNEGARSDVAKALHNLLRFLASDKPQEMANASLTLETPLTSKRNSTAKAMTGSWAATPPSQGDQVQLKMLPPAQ
Procedure: as §1

[4] = target: T3, HCAR2 (Homo sapiens, UniProt Q8TDS4); experiment: as above; format: cell-based
T3 construct: expressed in transfected cells; host or cells: Saccharomyces cerevisiae BY4741-derived GPCR-Gα reporter strains, X-2 landing pad
T3 sequence (Q8TDS4 whole entry): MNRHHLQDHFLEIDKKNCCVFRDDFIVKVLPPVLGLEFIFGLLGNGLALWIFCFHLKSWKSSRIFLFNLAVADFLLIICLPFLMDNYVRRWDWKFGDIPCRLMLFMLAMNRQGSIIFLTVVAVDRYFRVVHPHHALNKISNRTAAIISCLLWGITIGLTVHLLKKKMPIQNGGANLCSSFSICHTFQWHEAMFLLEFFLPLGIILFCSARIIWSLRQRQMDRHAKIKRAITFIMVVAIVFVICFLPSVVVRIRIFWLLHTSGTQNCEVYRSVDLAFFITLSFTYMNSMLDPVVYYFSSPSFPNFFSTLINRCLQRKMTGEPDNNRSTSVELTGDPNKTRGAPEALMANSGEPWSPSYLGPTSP
Procedure: as §1

[5] = target: T4, GPR68 (Homo sapiens, UniProt Q15743); experiment: dCyFIRscreen profiling and titrations in yeast GPCR-Gα reporter strains; format: cell-based
T4 construct: expressed in transfected cells; host or cells: Saccharomyces cerevisiae BY4741-derived GPCR-Gα reporter strains, X-2 landing pad
T4 sequence (Q15743 whole entry): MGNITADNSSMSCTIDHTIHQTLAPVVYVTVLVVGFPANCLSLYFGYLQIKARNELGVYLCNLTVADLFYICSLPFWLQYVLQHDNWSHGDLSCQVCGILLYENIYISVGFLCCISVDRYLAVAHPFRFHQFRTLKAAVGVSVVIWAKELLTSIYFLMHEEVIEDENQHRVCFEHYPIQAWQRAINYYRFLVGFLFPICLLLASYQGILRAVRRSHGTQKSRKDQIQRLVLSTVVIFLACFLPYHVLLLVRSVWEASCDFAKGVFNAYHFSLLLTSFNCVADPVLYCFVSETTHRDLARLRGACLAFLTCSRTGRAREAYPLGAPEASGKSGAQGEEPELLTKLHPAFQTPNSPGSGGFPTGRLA
Procedure: as §1
(§2) All titration curves were analyzed using Prism software and the pharmacological fitting function log(agonist) vs. response—Variable slope (four parameters) (GraphPad Software, San Diego, USA).

[6] = target: T5, GPR35 (Homo sapiens, UniProt Q9HC97); experiment: as above; format: cell-based
T5 construct: expressed in transfected cells; host or cells: Saccharomyces cerevisiae BY4741-derived GPCR-Gα reporter strains, X-2 landing pad
T5 sequence (Q9HC97 whole entry): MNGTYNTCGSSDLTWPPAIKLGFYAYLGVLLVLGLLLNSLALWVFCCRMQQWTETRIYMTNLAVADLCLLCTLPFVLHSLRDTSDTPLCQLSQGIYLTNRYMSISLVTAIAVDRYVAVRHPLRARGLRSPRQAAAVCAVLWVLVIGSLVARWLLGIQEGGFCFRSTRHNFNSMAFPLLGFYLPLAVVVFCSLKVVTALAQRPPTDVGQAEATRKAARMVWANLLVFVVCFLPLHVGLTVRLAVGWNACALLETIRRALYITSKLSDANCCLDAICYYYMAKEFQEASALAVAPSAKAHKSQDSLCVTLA
Procedure: as §1, §2

[7] = target: T6, LPAR1 (Homo sapiens, UniProt Q92633); experiment: as above; format: cell-based
T6 construct: expressed in transfected cells; host or cells: Saccharomyces cerevisiae BY4741-derived GPCR-Gα reporter strains, X-2 landing pad
T6 sequence (Q92633 whole entry): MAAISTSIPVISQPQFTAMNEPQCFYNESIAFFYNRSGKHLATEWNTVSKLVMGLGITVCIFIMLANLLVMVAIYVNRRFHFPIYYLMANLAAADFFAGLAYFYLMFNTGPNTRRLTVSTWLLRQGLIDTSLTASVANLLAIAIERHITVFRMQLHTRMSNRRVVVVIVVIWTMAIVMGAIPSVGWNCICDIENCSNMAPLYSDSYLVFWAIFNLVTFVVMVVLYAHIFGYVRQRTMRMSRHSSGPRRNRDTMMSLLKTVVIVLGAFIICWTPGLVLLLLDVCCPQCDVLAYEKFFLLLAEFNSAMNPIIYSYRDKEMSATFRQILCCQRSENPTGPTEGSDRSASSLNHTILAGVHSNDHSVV
Procedure: as §1, §2

[8] = target: T7, HCAR3 (Homo sapiens, UniProt P49019); experiment: as above; format: cell-based; set-up: expressed in transfected cells; details: for EC50: titration, yeast GPCR-Gα reporter strain, this study
T7 sequence (P49019 whole entry): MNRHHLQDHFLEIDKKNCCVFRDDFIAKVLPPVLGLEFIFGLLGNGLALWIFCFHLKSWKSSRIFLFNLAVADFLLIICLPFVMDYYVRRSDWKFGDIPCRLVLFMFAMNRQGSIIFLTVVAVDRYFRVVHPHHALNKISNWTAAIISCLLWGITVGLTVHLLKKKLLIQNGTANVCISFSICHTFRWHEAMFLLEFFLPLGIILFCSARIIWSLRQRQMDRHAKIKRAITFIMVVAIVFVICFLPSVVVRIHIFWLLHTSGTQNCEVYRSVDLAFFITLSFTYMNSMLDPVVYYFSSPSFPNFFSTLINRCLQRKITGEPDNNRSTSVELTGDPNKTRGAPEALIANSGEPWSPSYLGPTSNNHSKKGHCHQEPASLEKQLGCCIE
Procedure: as §1, §2

[9] = target: T8, ADORA2A (Homo sapiens, UniProt P29274); experiment: as above; format: cell-based
T8 construct: expressed in transfected cells; host or cells: Saccharomyces cerevisiae BY4741-derived GPCR-Gα reporter strains, X-2 landing pad
T8 sequence (P29274 whole entry): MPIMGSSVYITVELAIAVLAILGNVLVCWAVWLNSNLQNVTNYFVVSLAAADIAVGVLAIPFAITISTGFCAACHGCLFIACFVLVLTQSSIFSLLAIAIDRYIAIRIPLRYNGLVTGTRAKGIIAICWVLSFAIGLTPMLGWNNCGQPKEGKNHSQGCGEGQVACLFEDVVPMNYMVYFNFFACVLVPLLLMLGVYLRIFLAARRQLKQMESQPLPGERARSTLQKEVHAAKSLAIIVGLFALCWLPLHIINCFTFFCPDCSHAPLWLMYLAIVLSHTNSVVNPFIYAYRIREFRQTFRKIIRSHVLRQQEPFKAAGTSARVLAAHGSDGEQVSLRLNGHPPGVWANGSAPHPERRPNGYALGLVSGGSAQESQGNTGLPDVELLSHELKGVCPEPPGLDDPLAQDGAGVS
Procedure: as §1, §2

[10] = target: T9, ADRA2B (Homo sapiens, UniProt P18089); experiment: as above; format: cell-based
T9 construct: expressed in transfected cells; host or cells: Saccharomyces cerevisiae BY4741-derived GPCR-Gα reporter strains, X-2 landing pad
T9 sequence (P18089 1-450): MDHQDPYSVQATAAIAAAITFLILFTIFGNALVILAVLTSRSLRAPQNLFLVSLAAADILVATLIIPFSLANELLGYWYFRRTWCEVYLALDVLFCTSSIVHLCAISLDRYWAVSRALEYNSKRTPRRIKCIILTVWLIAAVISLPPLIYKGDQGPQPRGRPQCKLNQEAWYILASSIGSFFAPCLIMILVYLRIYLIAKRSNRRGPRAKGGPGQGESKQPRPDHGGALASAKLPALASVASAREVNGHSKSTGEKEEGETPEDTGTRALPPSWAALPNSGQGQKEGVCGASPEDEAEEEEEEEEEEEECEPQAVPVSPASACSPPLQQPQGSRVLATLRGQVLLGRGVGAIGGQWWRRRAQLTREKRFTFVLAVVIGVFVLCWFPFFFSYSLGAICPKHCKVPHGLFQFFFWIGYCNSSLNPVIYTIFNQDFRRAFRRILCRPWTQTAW
Procedure: dCyFIRscreen protocol. […] Cells were normalized to an OD of 0.1 in SCD LoFo pH=7.0 using a Biomek NXp liquid-handling robot. […] 36 μL normalized cells were distributed to each well containing the appropriate 10× ligand/vehicle. Plates were sealed with a breathable cover (Diversified Biotech; BERM-2000) and incubated at 30° C. […] Absorbance readings were also collected after 18 hours using the same instrument (22 flashes/well, excitation filter: 600 nm).
Titration Analyses. All titration curves were analyzed using Prism software and the pharmacological fitting function log(agonist) vs. response—Variable slope (four parameters) (GraphPad Software, San Diego, USA).

[11] = target: T7, HCAR3; details: literature value; read-out: EC50 at HCAR3 observed by Colosimo et al.; cited from earlier work
[12] = target: T10, CNR2 (Homo sapiens, UniProt P34972); experiment: dCyFIRscreen profiling in yeast GPCR-Gα reporter strains; format: cell-based
T10 construct: expressed in transfected cells; host or cells: Saccharomyces cerevisiae BY4741-derived GPCR-Gα reporter strains, X-2 landing pad
T10 sequence (P34972 whole entry): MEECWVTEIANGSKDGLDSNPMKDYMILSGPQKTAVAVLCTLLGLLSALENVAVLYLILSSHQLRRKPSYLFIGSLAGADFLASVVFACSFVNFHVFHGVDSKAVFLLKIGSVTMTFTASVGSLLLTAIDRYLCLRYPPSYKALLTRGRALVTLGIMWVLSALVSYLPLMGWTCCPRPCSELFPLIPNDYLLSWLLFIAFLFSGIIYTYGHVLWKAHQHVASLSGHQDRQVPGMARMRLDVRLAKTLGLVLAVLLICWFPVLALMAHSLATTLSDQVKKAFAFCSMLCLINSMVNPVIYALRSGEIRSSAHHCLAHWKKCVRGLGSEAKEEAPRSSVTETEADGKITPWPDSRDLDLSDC
Procedure: as §1

[13] = target: T11, GPR65 (Homo sapiens, UniProt Q8IYL9); experiment: dCyFIRscreen profiling and titrations in yeast GPCR-Gα reporter strains; format: cell-based
T11 construct: expressed in transfected cells; host or cells: Saccharomyces cerevisiae BY4741-derived GPCR-Gα reporter strains, X-2 landing pad
T11 sequence (Q8IYL9 whole entry): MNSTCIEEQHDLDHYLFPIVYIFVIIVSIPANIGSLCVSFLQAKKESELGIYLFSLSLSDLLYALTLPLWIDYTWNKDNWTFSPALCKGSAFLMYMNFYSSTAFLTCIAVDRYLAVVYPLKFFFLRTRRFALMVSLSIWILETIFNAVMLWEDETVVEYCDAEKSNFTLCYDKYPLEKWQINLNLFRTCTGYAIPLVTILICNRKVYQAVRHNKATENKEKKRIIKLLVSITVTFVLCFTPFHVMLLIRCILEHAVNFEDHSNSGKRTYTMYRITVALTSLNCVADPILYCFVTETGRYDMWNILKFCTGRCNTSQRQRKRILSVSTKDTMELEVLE
Procedure: as §1, §2

[14] = test system: 300-plex of GPCR-Gα reporter strains; experiment: dCyFIRplex FACS sorting of agonist-treated 300-plex; format: cell-based, Saccharomyces cerevisiae; details: following agonist treatment
Procedure: dCyFIRplex protocol. […] 10× ligand/vehicle stocks were added to individual wells of a DeepWell block. The consolidated 300-plex or control strains were then added to each well and grown in the presence of ligand/vehicle overnight, so that each culture would reach an OD=4.0 before dCyFIRplex profiling. Samples were washed with sterile ddH2O and normalized to an OD=2.0 in SCD LoFo pH=7.0. Tracer cells were added to each sample at a 1:301 ratio. The final mixture was then transferred into a glass sample tube (USA Scientific; 1450-2810) and used for cell sorting. A BD FACSAria-II cell sorter was used for all dCyFIRplex experiments to assess mTq2 (405 nm excitation, 450/50 nm emission) and mRuby3 fluorescence (535 nm excitation, 610/20 nm emission). A gating strategy was set using the three control samples (DI P1 mTq2, individual Gα reporter strains lacking an integrated receptor, and DI P1 mRuby3) such that tracer cells and any cell expressing mTq2 was sorted into a 14 mL collection tube (USA Scientific; 1485-2810) containing 500 μL YPD. Samples treated with water or 500 μM adenosine (well-characterized using dCyFIRscreen, inexpensive, and water-soluble) were used to build a standard curve measuring total events in the mRuby3 and mTq2 positive gates. The standard curve from a water-treated 300-plex was used to determine the number of tracer events that would correspond to 15,000 events in the mTq2 gate for a water-treated 300-plex. Each sample was sorted until the standardized tracer count was reached. Sorted cells were enriched by outgrowth in 5 mL YPD at 30° C. with shaking (200 rpm) for 18 hours. Cells were harvested by centrifugation at 3,000×g for 5 min, and resuspended in 1 mL ddH2O. Cells were either processed immediately for qPCR deconvolution or frozen in 100 μL aliquots for storage at −20° C. The set of samples comparatively deconvoluted by qPCR and NanoString methods were derived from aliquots of the same dCyFIRplex experiments. […]

SMILES: CC(C)CCC[C@@H](C)[C@H]1CC[C@H]2[C@@H]3CC=C4C[C@@H](O)CC[C@]4(C)[C@H]3CC[C@]12C [cholesterol]
- response in control dCyFIRscreen profiles [1]: Neither of these ligands elicited responses

SMILES: C[C@]12CC[C@H](O)CC1=CC[C@@H]1[C@@H]2CC[C@]2(C)C(=O)CC[C@@H]12 [DHEA, dehydroepiandrosterone]
- activity at LPAR4 in words (mode of action) [2]: increase receptor signaling
- activity at GPR4 in words (mode of action) [3]: increase receptor signaling and PAMs
- activity at HCAR2 in words (mode of action) [4]: increase receptor signaling
- activity at GPR68 in words (mode of action) [5]: increase receptor signaling and PAMs
- activity at GPR35 in words (mode of action, potency range) [6]: increase receptor signaling; also recorded: PAM-agonist
- activity at LPAR1 in words (mode of action) [7]: increase receptor signaling
- activity at HCAR3 in words (mode of action, potency range) [8]: increase receptor signaling and PAM-agonist and PAMs
- activity at ADORA2A in words (mode of action) [9]: increase receptor signaling

SMILES: NCCc1ccc(O)c(O)c1 [dopamine]
- activity at ADRA2B in words (mode of action, potency range) [10]: micromolar agonist

SMILES: CCCCCC(O)CC(=O)O (stereo not drawn) [3-hydroxyoctanoic acid]
- fold higher EC50 at HCAR3 observed by Colosimo et al. versus this study ([8]; 304 μM versus 24 μM): 12.6 fold
- EC50 [8]: 24 µM

SMILES: O=C(O)CCc1ccccc1 [phenylpropanoic acid]
- EC50 [11]: 208 µM

SMILES: C[C@]12CC[C@H](OS(=O)(=O)O)CC1=CC[C@@H]1[C@@H]2CC[C@]2(C)C(=O)CC[C@@H]12 [DHEA-S]
- response in control dCyFIRscreen profiles [1]: Neither of these ligands elicited responses

SMILES: O[C@H]1[C@H](O)[C@@H](O)[C@H](O)[C@@H](O)[C@H]1O [inositol]
- activity at GPR68 in words (mode of action) [5]: increase receptor signaling and PAM-agonist and PAMs
- activity at GPR35 in words (mode of action, potency range) [6]: increase receptor signaling; also recorded: PAM-agonist
- activity at CNR2 in words (mode of action) [12]: increase receptor signaling
- activity at ADORA2A in words (mode of action) [9]: increase receptor signaling; also recorded: NAM-agonist
- activity at GPR65 in words (mode of action) [13]: increase receptor signaling and PAM-agonist and PAMs

SMILES: COc1ccc2[nH]cc(CCNC(C)=O)c2c1 [melatonin]
- active cell pool, fraction of cell-sorting events for the 300-plex [14]: 1.0%

SMILES: O=C(O)c1cc(=O)c2ccccc2[nH]1 [KYNA, kynurenic acid]
- activity at GPR35 in words (mode of action, potency range) [6]: activated
- EC50 ([6]; titration, yeast GPCR-Gα reporter strain): 795 µM
- activity at HCAR3 in words (mode of action, potency range) [8]: micromolar interactions; also recorded: orthosteric agonist
- fold higher affinity (lower EC50) for HCAR3 compared to GPR35 ([8]; head-to-head titrations of GPR35 and HCAR3): 18 fold and 18.6 fold
- EC50 [8]: 41 µM
- fold lower EC50 at HCAR3 than phenylpropanoic acid ([8]; versus literature EC50 of phenylpropanoic acid): 5.1 fold
- activity at ADRA2B in words (mode of action, potency range) [10]: micromolar interactions; also recorded: negative allosteric modulator
